According to article doi:10.1101/2024.02.15.580468v1, “Morphing Cholinesterase Inhibitor Amiridine into Multipotent Drugs for the Treatment of Alzheimer’s Disease” (biorxiv, 2024):
Like-named read-outs stand apart in the source and are kept apart here.

Legend:
[1] = biological target: T1, recombinant human GluN1/GluN2B NMDA receptor (GluN1-4a/GluN2B) (Homo sapiens, UniProt Q05586+Q13224); assay: whole-cell patch clamp, HEK293; assay type: cell-based; conditions: -60 mV, 1 mM L-glutamate, 100 µM glycine, pH 7.3, steady state; voltage-dependent
T1 construct: gene GRIN1; GluN1-4a and GluN2B co-expressed with GFP in HEK293 cells
T1 sequence (Q13224 27-1484, other chains not shown): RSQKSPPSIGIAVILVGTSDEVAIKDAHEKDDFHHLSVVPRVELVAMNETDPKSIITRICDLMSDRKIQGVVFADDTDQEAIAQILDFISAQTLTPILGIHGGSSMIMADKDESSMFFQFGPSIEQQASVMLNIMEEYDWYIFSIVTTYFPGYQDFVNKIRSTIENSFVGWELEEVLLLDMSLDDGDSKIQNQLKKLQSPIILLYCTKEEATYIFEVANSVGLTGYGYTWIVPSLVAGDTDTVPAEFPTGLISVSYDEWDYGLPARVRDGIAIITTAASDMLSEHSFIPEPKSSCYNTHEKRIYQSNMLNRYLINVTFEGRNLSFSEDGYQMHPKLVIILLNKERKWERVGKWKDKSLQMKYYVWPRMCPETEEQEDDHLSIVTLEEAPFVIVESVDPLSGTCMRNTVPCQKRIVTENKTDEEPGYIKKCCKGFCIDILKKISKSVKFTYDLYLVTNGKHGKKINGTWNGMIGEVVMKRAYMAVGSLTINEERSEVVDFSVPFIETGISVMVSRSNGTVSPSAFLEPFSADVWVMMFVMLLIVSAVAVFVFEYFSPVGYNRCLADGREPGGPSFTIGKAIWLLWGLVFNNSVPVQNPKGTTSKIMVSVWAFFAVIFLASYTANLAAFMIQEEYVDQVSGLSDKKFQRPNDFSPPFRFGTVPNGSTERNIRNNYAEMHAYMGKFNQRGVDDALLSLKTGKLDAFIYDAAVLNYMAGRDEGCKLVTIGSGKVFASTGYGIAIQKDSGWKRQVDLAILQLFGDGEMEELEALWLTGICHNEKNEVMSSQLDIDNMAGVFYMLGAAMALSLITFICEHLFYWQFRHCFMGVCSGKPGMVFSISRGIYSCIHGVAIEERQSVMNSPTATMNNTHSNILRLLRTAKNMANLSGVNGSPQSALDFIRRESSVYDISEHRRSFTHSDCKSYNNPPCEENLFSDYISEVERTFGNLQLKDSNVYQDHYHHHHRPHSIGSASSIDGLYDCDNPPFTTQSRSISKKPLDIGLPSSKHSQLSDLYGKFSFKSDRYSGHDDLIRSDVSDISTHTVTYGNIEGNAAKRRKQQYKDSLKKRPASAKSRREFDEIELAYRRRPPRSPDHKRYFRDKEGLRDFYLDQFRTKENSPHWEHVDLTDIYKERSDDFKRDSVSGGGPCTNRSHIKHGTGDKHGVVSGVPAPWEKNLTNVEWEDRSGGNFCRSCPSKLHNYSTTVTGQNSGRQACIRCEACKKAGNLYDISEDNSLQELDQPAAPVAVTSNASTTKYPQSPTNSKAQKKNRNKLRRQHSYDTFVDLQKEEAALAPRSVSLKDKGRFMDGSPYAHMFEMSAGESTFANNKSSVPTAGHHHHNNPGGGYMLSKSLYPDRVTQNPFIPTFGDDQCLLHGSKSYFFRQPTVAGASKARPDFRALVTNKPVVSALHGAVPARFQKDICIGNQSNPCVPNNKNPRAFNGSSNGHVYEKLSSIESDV
Description: whole-cell patch clamp, HEK293 on recombinant human GluN1/GluN2B NMDA receptor (GluN1-4a/GluN2B)

in vitro [2] = assay: in vitro; set-up: MTT viability assay, undifferentiated SH-SY5Y cells; conditions: human, undifferentiated sh-sy5y cells, read-out: SH-SY5Y IC50
Description: (§1) The cytotoxic profile of 5–7 was carried through the use of the MTT (3-(4,5-dimethylthiazol-2-yl)-2,5-diphenyltetrazolium bromide) assay on human neuroblastoma (SH-SY5Y) and hepatocellular carcinoma (HepG2) cell lines, following established protocols. The cytotoxicity was assessed on SH-SY5Y cells in undifferentiated and in differentiated form. The data obtained from the measurements on the undifferentiated SH-SY5Y and HepG2 cells are summarized in Table 1 for 5c-d, 7c and 7g, as well as for the reference compounds amiridine hydrochloride and THA. Additional data can be found in Supplementary Information (Table S2 and Fig. S1). The both cell lines were cultured according to ECACC recommended conditions and seeded into 96-well plates in 100 µL and density of 8000 per well. For evaluation of cytotoxicity of the differentiated form the SH-SY5Y cells also underwent 9-day differentiation protocol into mature neurons according to Riegerová et al .. The tested compounds were dissolved in DMSO (Sigma Aldrich) or in phosphate buffer saline (PBS, Sigma Aldrich) and subsequently in the growth medium - high glucose Dulbecco’s Modified Eagle’s medium (DMEM; Sigma-Aldrich, D6429). […] Then, the differentiated SH-SY5Y cells were treated with concentrations corresponding to IC50 values obtained from the cytotoxicity measurement using undifferentiated SH-SY5Y cells. Cells were exposed to a tested compound for 24 h. Then the medium was replaced by a medium containing 10 μM of MTT and cells were allowed to produce formazan for another approximately 3 h under surveillance. Thereafter, medium was aspirated and purple crystals of MTT formazan were dissolved in 100 μL DMSO under shaking. Cell viability was assessed spectrophotometrically by the amount of formazan produced. Absorbance was measured at 570 nm with 650 nm reference wavelength on Spark (Tecan Group Ltd, Switzerland). The IC50 value was then calculated from the control-subtracted triplicates using non-linear regression (four parameters) of GraphPad Prism 9 software. Final IC50 and SEM values were obtained as a mean of three independent measurements.

[3] = biological target: T2, hAChE (human recombinant acetylcholinesterase) (Homo sapiens, UniProt P22303); assay: biochemical; set-up: modified Ellman assay, cholinesterase activity, absorbance at 412 nm
T2 construct: gene ACHE; recombinant enzyme, purchased from Sigma-Aldrich
T2 sequence (P22303 32-614): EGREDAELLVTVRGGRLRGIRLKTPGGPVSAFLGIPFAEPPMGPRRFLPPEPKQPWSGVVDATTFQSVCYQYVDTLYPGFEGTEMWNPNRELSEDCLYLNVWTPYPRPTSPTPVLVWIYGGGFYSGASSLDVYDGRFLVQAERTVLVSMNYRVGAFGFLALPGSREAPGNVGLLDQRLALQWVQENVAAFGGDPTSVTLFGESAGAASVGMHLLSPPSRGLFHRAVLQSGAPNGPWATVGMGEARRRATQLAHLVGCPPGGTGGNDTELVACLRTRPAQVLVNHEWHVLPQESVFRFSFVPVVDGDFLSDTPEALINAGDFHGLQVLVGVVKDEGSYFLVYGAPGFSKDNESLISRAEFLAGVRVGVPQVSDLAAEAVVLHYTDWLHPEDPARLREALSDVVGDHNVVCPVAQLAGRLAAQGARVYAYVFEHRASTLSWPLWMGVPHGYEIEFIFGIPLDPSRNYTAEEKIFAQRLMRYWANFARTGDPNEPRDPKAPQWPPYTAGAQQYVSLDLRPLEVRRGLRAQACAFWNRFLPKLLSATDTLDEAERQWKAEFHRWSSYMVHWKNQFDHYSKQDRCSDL
Description: (§2) The inhibitory activities of 5–7 and all the reference compounds were determined using modified Ellman’s method against human recombinant AChE (hAChE, E.C. 3.1.1.7, purchased from Sigma-Aldrich, Prague, Czech Republic) and human plasmatic BChE (hBChE, E.C. 3.1.1.8, purchased from Sigma-Aldrich, Prague, Czech Republic). The results are expressed as IC50 (the concentration of the compound that is required to reduce 50% of cholinesterase activity). Other used compounds – phosphate buffer solution (PBS, pH = 7.4), 5,5’-dithio-bis(2-nitrobenzoic) acid (Ellman’s reagent, DTNB), acetylthiocholine (ATCh) and butyrylthiocholine (BTCh) were also commercially available and were purchased from Sigma-Aldrich (Prague, Czech Republic). During the measurement, 96-well microplates from polystyrene (ThermoFisher Scientific, Waltham, MA, USA) were used. The solutions of corresponding enzyme in PBS were prepared up to final activity 0.002 U/µL. The assay medium (100 µL) consisted of cholinesterase (10 µL), DTNB (20 µL of 0.01 M solution) and PBS (40 µL of 0.1 M solution). The solutions of the tested compounds (10 µL of different concentrations) were pre- incubated for 5 minutes in the assay medium and then solution of substrate (20 µL of 0.01 M ATCh or BTCh iodide solution) was added to initiate the reaction. The increase of absorbance was measured at 412 nm using Multimode microplate reader Synergy 2 (BioTek Inc., Winooski, VT, USA). For the calculation of the resulting measured activity (the percentage of inhibition I) following formula was used: [drawing 1] where ΔAi indicates absorbance change provided by adequate enzyme exposed to corresponding inhibitor and ΔA0 indicates absorbance change when a solution of PBS was added instead of a solution of inhibitor. Software Microsoft Excel (Redmont, WA, USA) and GraphPad Prism version 5.02 for Windows (GraphPad Software, San Diego, CA, USA) were used for the statistical data evaluation. ChEs are enzymes responsible for the hydrolysis and metabolism of various endogenous and exogenous substrates, that are broadly studied in association with disease conditions like myasthenia gravis or AD. The primary attention in the development of AD drugs has been paid to AChE inhibitors. Nevertheless, there is growing interest in nonselective or BChE-selective inhibitors due to the compensatory role of BChE when AChE levels are depleted during the progression of AD [23]. Selective BChE inhibitors may be beneficial for patients in moderate-to-severe stages of AD [23, 24]. […] Accordingly, we assessed the inhibition activities of these novel compounds against human recombinant AChE (hAChE) and human serum BChE (hBChE) following a modified spectrophotometric protocol developed by Ellman et al.. […] Complete data are available in the Supplementary Information (Table S1), including the inhibition percentages for all derivatives. Amiridine hydrochloride (amiridine.HCl) and tacrine (THA) were used as reference compounds. […] Only a superficial structure-activity relationship for AChE inhibition can be drawn from the obtained data. […] The presence of any substituent on the benzothiazole core enhanced anti-AChE activity, with the best-tolerated position for the substituent being 6 for derivatives with halogen atoms (7b-d with bromine or 7g-h with [compound left out]. h

[4] = biological target: T3, hBChE (human serum / plasmatic butyrylcholinesterase) (Homo sapiens, UniProt P06276); assay: biochemical; set-up: modified Ellman assay, cholinesterase activity, absorbance at 412 nm
T3 construct: gene BCHE; native enzyme from human plasma/serum, purchased from Sigma-Aldrich
T3 sequence (P06276 29-602): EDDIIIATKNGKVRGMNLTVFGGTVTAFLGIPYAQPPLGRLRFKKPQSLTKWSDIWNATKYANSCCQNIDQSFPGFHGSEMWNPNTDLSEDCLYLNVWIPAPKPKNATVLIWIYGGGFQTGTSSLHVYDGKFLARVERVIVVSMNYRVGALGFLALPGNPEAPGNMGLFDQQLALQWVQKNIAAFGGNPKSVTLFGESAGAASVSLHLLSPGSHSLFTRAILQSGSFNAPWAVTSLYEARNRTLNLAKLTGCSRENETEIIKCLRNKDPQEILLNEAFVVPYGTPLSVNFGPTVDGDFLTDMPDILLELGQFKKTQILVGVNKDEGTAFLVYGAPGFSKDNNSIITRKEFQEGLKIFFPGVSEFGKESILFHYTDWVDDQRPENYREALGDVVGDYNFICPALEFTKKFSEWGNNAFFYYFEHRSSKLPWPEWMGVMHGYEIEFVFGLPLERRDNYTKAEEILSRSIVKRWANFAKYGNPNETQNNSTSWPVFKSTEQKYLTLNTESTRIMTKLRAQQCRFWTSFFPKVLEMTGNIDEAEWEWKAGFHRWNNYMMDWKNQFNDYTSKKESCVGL
Description: as §2

in vitro [5] = assay: in vitro; set-up: MTT viability assay, HepG2 cells; conditions: human, hepg2 cells; read-out: HepG2 IC50
Description: as §1

in vitro [6] = assay: in vitro; set-up: PAMPA blood-brain barrier permeability, effective permeability Pe; conditions: PAMPA-BBB Pe
Description: page 5 / Table S2. Cytotoxicity profiles of 5–7 on SH-SY5Y cell line and predictions to BBB penetration by PAMPA results. / Pe (10^-6 cm.s^-1)

SMILES: O=C(CNc1nc2ccc(OC(F)(F)F)cc2s1)Nc1c2c(nc3c1CCC3)CCCC2 [7m, N-{1H,2H,3H,5H,6H,7H,8H-cyclopenta[b]quinolin-9-yl}-2-{[6-(trifluoromethoxy)-1,3-benzothiazol-2-yl]amino}acetamide]
- RI (% inhibition at 30 μM) [1]: 63.0 ± 2.6%
- CC50 at 24 h (in vitro [2]): 29.5 ± 2.3 µM
- inhibition at 1 µM [3]: 13.3 ± 0.71%
- inhibition at 1 µM [4]: 1.5 ± 0.64%
- CC50 at 24 h (in vitro [5]): ≥ 200 µM
- Papp (in vitro [6]): 2.54 ± 0.42 ×10⁻⁶ cm/s
